In US20170334899A1, “AMINO-SUBSTITUTED ISOTHIAZOLES” (Bayer Pharma Aktiengesellschaft, priority 2014, published 2017):
Values joined by “and” are separate entries in the source; they are usually repeats but may differ in a detail not shown here. Equal values may be shown once. Where a name gives a salt, the structure may show the parent alone.

How the values were obtained:
[1] = target: T1, catalytic domain of human Bub1 (amino acids 704-1085) (Homo sapiens, UniProt O43683); assay: Bub1 kinase assay (TR-FRET); type: biochemical; conditions: 10 μM ATP, avg, read-out: Bub1 avg (IC50 [mol/l])
T1 construct: catalytic domain of human Bub1 (amino acids 704-1085); His6 (N); made in house; host or cells: insect cells (Hi5)
T1 sequence (O43683 704-1085): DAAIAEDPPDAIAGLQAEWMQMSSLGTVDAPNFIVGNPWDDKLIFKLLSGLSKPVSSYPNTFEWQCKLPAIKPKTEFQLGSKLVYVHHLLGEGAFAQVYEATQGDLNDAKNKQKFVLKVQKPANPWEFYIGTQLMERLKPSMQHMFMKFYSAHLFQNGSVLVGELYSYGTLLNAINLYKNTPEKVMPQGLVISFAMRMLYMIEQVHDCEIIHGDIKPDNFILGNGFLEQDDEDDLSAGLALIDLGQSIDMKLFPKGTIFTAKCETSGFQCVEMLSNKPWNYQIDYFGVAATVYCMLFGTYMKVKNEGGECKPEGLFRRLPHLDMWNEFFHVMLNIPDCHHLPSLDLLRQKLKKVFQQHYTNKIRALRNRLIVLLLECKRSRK
Outline: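 Readout is the 665/620 nm TR-FRET ratio from anti-phosphoserine antibody, Eu-labelled anti-mouse IgG and streptavidin-XL665, scaled between no-enzyme and uninhibited controls. Reaction: 1 μM biotinylated peptide, 10 μM ATP, 60 min, 22 °C, after 15 min compound preincubation with His6-Bub1 (704-1085, insect-expressed, ~200 ng/ml).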

CDK2/CycE = target: T2, CDK2/CycE (Homo sapiens, UniProt P24941); assay: CDK2/CycE kinase assay (TR-FRET); type: biochemical; conditions: avg, read-out: CDK2 avg (IC50 [mol/l])
T2 construct: GST; purchased ProQinase GmbH (Freiburg, Germany); host or cells: insect cells (Sf9)
Outline: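 GST-tagged human CDK2 and CycE from Sf9 cells, preincubated 15 min with compound, then 25 min at 22° C. with 10 μM ATP and 0.75 μM biotinylated Rb-derived peptide (final). Phospho-substrate read by TR-FRET (anti-pRB pSer807/pSer811, Eu anti-mouse IgG, streptavidin-XL665), 665/620 nm ratio, normalised to no-inhibitor and no-enzyme controls.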

| SMILES | IC50 [1] | IC50 (CDK2/CycE) [µM] |
| --- | --- | --- |
| Cc1nsc(Nc2cncc(C(F)(F)F)n2)c1C(=O)Nc1ccc(C(=O)NC2CCN(CC(F)(F)F)CC2)cc1 [Example 167, 3-methyl-N-(4-{[1-(2,2,2-trifluoroethyl)piperidin-4-yl]carbamoyl}phenyl)-5-{[6-(trifluoromethyl)pyrazin-2-yl]amino}-1,2-thiazole-4-carboxamide] | > 20 µM | > 20 |
| Cc1nsc(Nc2cncc(C(F)(F)F)n2)c1C(=O)Nc1ccc(F)c(OC2CCN(C(=O)OC(C)(C)C)CC2)c1 [Example 168, tert-butyl 4-(2-fluoro-5-{[(3-methyl-5-{[6-(trifluoromethyl)pyrazin-2-yl]amino}-1,2-thiazol-4-yl)carbonyl]amino}phenoxy)piperidine-1-carboxylate] | > 20 µM | > 20 |
| Cc1nsc(Nc2cnc3ccccc3n2)c1C(=O)Nc1ccc(N2CCOCC2)nc1 [Example 169, 3-methyl-N-[6-(morpholin-4-yl)pyridin-3-yl]-5-(quinoxalin-2-ylamino)-1,2-thiazole-4-carboxamide] | > 20 µM | > 20 |
| Cc1nsc(Nc2ccc(C#N)cn2)c1C(=O)Nc1ccc(N[C@@H](C)C(=O)OC(C)(C)C)nc1 [Example 170, tert-butyl N-{5-[({5-[(5-cyanopyridin-2-yl)amino]-3-methyl-1,2-thiazol-4-yl}carbonyl)amino]pyridin-2-yl}alaninate] | > 20 µM | > 20 |
| Cc1nsc(Nc2ccc(C#N)cn2)c1C(=O)Nc1ccc(NC2CCCN(C(=O)OC(C)(C)C)C2)nc1 (stereo not drawn) [Example 171, tert-butyt 3-({5-[({5-[(5-cyanopyridin-2-yl)amino]-3-methyl-1,2-thiazol-4-yl}carbonyl)amino]pyridin-2-yl}amino)piperidine-1-carboxylate] | > 20 µM | > 20 |
| Cc1nsc(Nc2cnc3ccccc3n2)c1C(=O)Nc1ccc(NC2CC2)nc1 [Example 172, N-[6-(cyclopropylamino)pyridin-3-yl]-3-methyl-5-(quinoxalin-2-ylamino)-1,2-thiazole-4-carboxamide] | > 20 µM and 18 µM | > 20 |
| COc1ccc(NC(=O)c2c(C)nsc2Nc2ccc(C#N)cn2)c(N2CCOCC2)n1 [Example 173, 5-[(5-cyanopyridin-2-yl)amino]-N-[6-methoxy-2-(morpholin-4-yl)pyridin-3-yl]-3-methyl-1,2-thiazole-4-carboxamide] | > 20 µM | > 20 |
| Cc1nsc(Nc2cnc(C(F)(F)F)cn2)c1C(=O)Nc1ccc(F)c(OCC2CCCN(CC(F)F)C2)c1 (stereo not drawn) [Example 335, N-(3-{[1-(2,2-difluoroethyl)piperidin-3-yl]methoxy}-4-fluorophenyl)-3-methyl-5-{[5-(trifluoromethyl)pyrazin-2-yl]amino}-1,2-thiazole-4-carboxamide] | ≥ 20 µM | ≥ 20 |
| Cc1nsc(Nc2cnc(C(F)(F)F)cn2)c1C(=O)Nc1ccc(OC2CCN(CCC(F)(F)F)CC2)nc1 [Example 426, 3-Methyl-5-{[5-(trifluoromethyl)pyrazin-2-yl]amino}-N-(6-{[1-(3,3,3-trifluoro-propyl)piperidin-4-yl]oxy}pyridin-3-yl)-1,2-thiazole-4-carboxamide, Salt with Hydrochloric Acid] | ≥ 20 µM | ≥ 20 |
